The results in this text go back to ChEMBL document CHEMBL1201862, “PubChem BioAssay data set” (2004).

Some test systems named below: HOP-92; HT-29; SW-620; SF-268; A498; KM-20L2; RPMI-8226; ACHN; MOLT-4; SK-MEL-5; NCI-H522; IGROV-1; U-251; K562; OVCAR-3.
Holding throughout (assay): inhibition of tumour cell growth, NCI panel, 48 h

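Dose response: 5 concentrations. Exposure: 48 h. Format: 96-well plates. Endpoint: linear interpolation; highest concentration if not reached. GI50 marks 50% less growth.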 The source made the active and inactive calls. Cut-off read from the data, not from the text of the source: active = GI50 up to about 1.1 µM and inactive = higher.

Take `O=C(O)c1ccc([N+](=O)[O-])c2c(=O)c3ccccc3[nH]c12`: the GI50 with HOP-92, in the experiment on HT-29, in the experiment on SW-620, with SF-268, in the experiment on A498 and with KM-20L2 was > 100 µM (inactive) throughout. Also, the GI50 with RPMI-8226, in the experiment with ACHN, in the experiment with MOLT-4, in the experiment with SK-MEL-5, with NCI-H522 and in the experiment on IGROV-1 was > 100 µM (inactive) in each case. Besides, the GI50 with U-251 and with K562 was > 100 µM (inactive) in each case.

Consider `CN(CC(=O)O)S(=O)(=O)c1ccc(F)cc1`, for which the GI50 in the experiment with HOP-92, with HT-29, with SW-620, in the experiment on SF-268, with A498 and in the experiment with KM-20L2 was > 100 µM (inactive) throughout. The GI50 with RPMI-8226, in the experiment on ACHN, in the experiment on OVCAR-3, with MOLT-4, in the experiment with SK-MEL-5 and in the experiment with NCI-H522 was > 100 µM (inactive) throughout. In addition, the GI50 in the experiment with IGROV-1, in the experiment on U-251 and in the experiment with K562 was > 100 µM (inactive) each time.

In the case of `C/C(CC(=O)Nc1ccc(Cl)c(Cl)c1)=N/NC(=O)C[n+]1ccccc1`, the GI50 in the experiment on HOP-92 is > 100 µM (inactive); in the experiment on HT-29, > 100 µM (inactive); in the experiment with SF-268 it was > 100 µM (inactive); in the experiment with A498, > 100 µM (inactive); in the experiment with KM-20L2 it was 76.9 µM (inactive); in the experiment with RPMI-8226, 32.3 µM (inactive). The GI50 in the experiment on ACHN was > 100 µM (inactive); in the experiment on OVCAR-3, > 100 µM (inactive); in the experiment with MOLT-4, 94.2 µM (inactive); in the experiment on SK-MEL-5, > 100 µM (inactive); with NCI-H522 it was 68.2 µM (inactive); in the experiment on IGROV-1, > 100 µM (inactive). Besides, the results for the GI50 in the experiment with U-251 and in the experiment on K562 were > 100 µM (inactive) and 45.8 µM (inactive), respectively.

`O=C(Nc1nc2ccc([N+](=O)[O-])cc2s1)C(=O)C(C1OC(=O)c2ccccc21)[N+](=O)[O-]` (stereo unspecified): the GI50 in the experiment on HOP-92 was 20.4 µM (inactive); in the experiment on HT-29, > 100 µM (inactive); in the experiment on SW-620, > 100 µM (inactive); in the experiment with SF-268, 76.9 µM (inactive); in the experiment on A498, 12.6 µM (inactive); in the experiment with KM-20L2 it was > 100 µM (inactive). The GI50 is 56.2 µM (inactive) in the experiment with RPMI-8226; 39.3 µM (inactive) in the experiment with ACHN; 71 µM (inactive) with OVCAR-3; 88.5 µM (inactive) with MOLT-4; 64.6 µM (inactive) in the experiment on SK-MEL-5; 42.2 µM (inactive) with IGROV-1. Besides, the GI50 in the experiment on U-251 is 82.8 µM (inactive); with K562 it was 83.4 µM (inactive).

For `COc1cc(C2C(C(=O)Nc3cc(F)c(F)cc3F)=C(C)NC(C)=C2C(=O)Nc2cc(F)c(F)cc2F)ccc1O`, the GI50 in the experiment on HOP-92 was 0.982 µM (active); with HT-29, 29 µM (inactive); in the experiment on SW-620, 37.7 µM (inactive); in the experiment with SF-268, 15 µM (inactive); with A498, 19.4 µM (inactive); with KM-20L2, 32 µM (inactive). For the same compound, the GI50 is 16.3 µM (inactive) in the experiment with RPMI-8226; 18.8 µM (inactive) with ACHN; 14.3 µM (inactive) in the experiment with OVCAR-3; 11.3 µM (inactive) in the experiment with MOLT-4; 18.5 µM (inactive) with SK-MEL-5; 13.3 µM (inactive) with NCI-H522. Also, the GI50 is 23.1 µM (inactive) in the experiment on IGROV-1, 23.6 µM (inactive) in the experiment with U-251 and 18.4 µM (inactive) with K562.

Turning to `Cc1ccc2c(C3Cc4ccccc4N3C(=O)/C=C\C(=O)O)c(C)[nH]c2c1` (stereo unspecified), the GI50 was 30.8 µM (inactive) in the experiment with HOP-92; 73.5 µM (inactive) with HT-29; 33.1 µM (inactive) in the experiment on SW-620; 65.8 µM (inactive) in the experiment on A498; > 100 µM (inactive) in the experiment on KM-20L2; 24.4 µM (inactive) in the experiment on RPMI-8226. Also, the GI50 is > 100 µM (inactive) in the experiment with ACHN; 19.6 µM (inactive) in the experiment with OVCAR-3; 29.5 µM (inactive) in the experiment with MOLT-4; 41.4 µM (inactive) with SK-MEL-5; 24.7 µM (inactive) in the experiment with NCI-H522; 41 µM (inactive) with IGROV-1. Further, the values for the GI50 in the experiment on U-251 and in the experiment on K562 were 44.6 µM (inactive) and 22.2 µM (inactive), respectively.

Consider `COc1ccc(/C=[N+](\[O-])[C@H](COCc2ccccc2)c2ccccc2)cc1`, for which the GI50 with HOP-92 is 23.9 µM (inactive); with HT-29, 52.1 µM (inactive); in the experiment with SW-620 it was 92 µM (inactive); with SF-268, 67.5 µM (inactive); with A498, > 100 µM (inactive); in the experiment with KM-20L2, > 100 µM (inactive). Moreover, the GI50 with RPMI-8226 is 15.7 µM (inactive); with ACHN, 51.8 µM (inactive); with OVCAR-3, 44.4 µM (inactive); in the experiment on MOLT-4, 25.2 µM (inactive); in the experiment on NCI-H522, 41.1 µM (inactive); with IGROV-1, > 100 µM (inactive). In addition, the GI50 with U-251 was > 100 µM (inactive); in the experiment with K562, 45.3 µM (inactive).

With `COC(=O)N/N=C(/Cc1occc(=O)c1O)C(=O)Nc1ccc([N+](=O)[O-])cc1[N+](=O)[O-]`, the GI50 in the experiment with HOP-92, in the experiment with HT-29, in the experiment with SW-620, with SF-268, in the experiment on A498 and with KM-20L2 was > 100 µM (inactive) in each case. In addition, the GI50 in the experiment with RPMI-8226, in the experiment with ACHN, in the experiment on MOLT-4, in the experiment on SK-MEL-5, in the experiment on NCI-H522 and with IGROV-1 was > 100 µM (inactive) each time. Also, the GI50 in the experiment with U-251 and in the experiment with K562 was > 100 µM (inactive) throughout.

As for `Cc1ccc(NC(=O)CCc2nnc3s/c(=C\c4cccc([N+](=O)[O-])c4)c(=O)n23)cc1`, the GI50 with HOP-92 was 85.3 µM (inactive); with HT-29, > 100 µM (inactive); in the experiment with SW-620, 19.3 µM (inactive); in the experiment on SF-268, > 100 µM (inactive); in the experiment on A498, > 100 µM (inactive); with KM-20L2, > 100 µM (inactive). In addition, the GI50 in the experiment with RPMI-8226 is > 100 µM (inactive); in the experiment on ACHN it was 84.7 µM (inactive); in the experiment on OVCAR-3 it was > 100 µM (inactive); with MOLT-4, > 100 µM (inactive); in the experiment with SK-MEL-5 it was > 100 µM (inactive); in the experiment with NCI-H522, 52.6 µM (inactive). For the same compound, the GI50 with IGROV-1 is > 100 µM (inactive); in the experiment on U-251 it was 47.9 µM (inactive); with K562 it was > 100 µM (inactive).

Regarding `CC(C)[Si](OCC1CC(C[C@H]2CC(C[C@H]3C[C@@H](CO[Si](C(C)C)(C(C)C)C(C)C)OC(C)(C)O3)OC(C)(C)O2)OC(C)(C)O1)(C(C)C)C(C)C` (stereo partly specified), the GI50 in the experiment on HOP-92, in the experiment with HT-29, in the experiment with SW-620, in the experiment on SF-268, with A498 and in the experiment with KM-20L2 was > 100 µM (inactive) each time. In addition, the GI50 in the experiment on RPMI-8226, with ACHN, in the experiment on OVCAR-3, with MOLT-4, in the experiment on SK-MEL-5 and in the experiment with NCI-H522 was > 100 µM (inactive) in each case. Also, the GI50 in the experiment on IGROV-1, in the experiment with U-251 and with K562 was > 100 µM (inactive) each time.

Turning to `O=C1OC(c2ccccc2)C2CC3CC4(CCC3CN12)OCCO4` (stereo unspecified), the GI50 in the experiment with HOP-92 is 80 µM (inactive); with HT-29 it was > 100 µM (inactive); in the experiment on SW-620 it was > 100 µM (inactive); with SF-268, > 100 µM (inactive); in the experiment with A498 it was > 100 µM (inactive); with KM-20L2, > 100 µM (inactive). Also, the GI50 in the experiment with RPMI-8226 was 94 µM (inactive); in the experiment with OVCAR-3, > 100 µM (inactive); in the experiment with MOLT-4, > 100 µM (inactive); in the experiment on SK-MEL-5, 17.9 µM (inactive); in the experiment on NCI-H522 it was 0.142 µM (active); with IGROV-1, > 100 µM (inactive). The figures for the GI50 with U-251 and in the experiment with K562 were > 100 µM (inactive) and 45.9 µM (inactive), respectively.

As for `C[n+]1cccc(NC(=O)c2ccc(NC(=O)C34CCC(C(=O)Nc5ccc(C(=O)Nc6ccc[n+](C)c6)cc5)(CC3)CC4)cc2)c1`, the GI50 in the experiment with HOP-92 is > 100 µM (inactive); in the experiment on HT-29 it was 45.9 µM (inactive); in the experiment with SW-620, 70.1 µM (inactive); with SF-268 it was 16.4 µM (inactive); with A498, 18 µM (inactive); in the experiment with KM-20L2 it was > 100 µM (inactive). In addition, the GI50 in the experiment with RPMI-8226 is 3.92 µM (inactive); with ACHN it was 17.9 µM (inactive); in the experiment with MOLT-4 it was 56.2 µM (inactive); in the experiment on SK-MEL-5, 33.2 µM (inactive); in the experiment on NCI-H522 it was 5.42 µM (inactive); in the experiment on IGROV-1 it was 13.5 µM (inactive). The GI50 with U-251 is 27.9 µM (inactive); in the experiment on K562, 2.55 µM (inactive).

In the case of `Cc1ccc(NC(=O)c2cccc([N+](=O)[O-])c2O)c([N+](=O)[O-])c1`, the GI50 is 21.5 µM (inactive) in the experiment with HOP-92; 12.1 µM (inactive) with HT-29; 16.8 µM (inactive) in the experiment on SW-620; 17.9 µM (inactive) in the experiment on SF-268; 16 µM (inactive) in the experiment with A498; 18.7 µM (inactive) with KM-20L2. Besides, the GI50 is 8.69 µM (inactive) with RPMI-8226; 16.4 µM (inactive) in the experiment on ACHN; 18.9 µM (inactive) in the experiment with OVCAR-3; > 10 µM (inactive) in the experiment on MOLT-4; 14.1 µM (inactive) in the experiment with NCI-H522; 20.9 µM (inactive) with IGROV-1. Also, the GI50 in the experiment with U-251 was 14.3 µM (inactive); with K562, 18.8 µM (inactive).
